PMC7957705 (Molecules, 2021)
Entries after “also recorded” stand apart in the source; their conditions may differ. Where a SMILES comes first, the peptide text is derived from it. Bridges are numbered along the chain shown (N, C = ends). Triazole bridges read from a SMILES are 1,4-linked. [ ]: non-standard residue; d: D form. The star is where a group is joined. Benzoyl(4-guanidino) = N=C(N)Nc1ccc(C(=O)*)cc1; Aha = [N-]=[N+]=NCC[C@H](N)C(=O)O; β3hV = CC(C)[C@H](N)CC(=O)O; Nle = CCCC[C@H](N)C(=O)O; Pra = C#CC[C@H](N)C(=O)O

Key:
human MCH-R1 = target: T1, human MCH-R1 (Homo sapiens, UniProt Q99705); test: Binding displacement of [125I]-[Phe13,Tyr19]-MCH at membranes expressing human MCH-R1
T1 construct: expressed in transfected cells
Method: Stable cell lines were obligatory for all receptor programs. We cloned the human receptor and established the cell line as previously described. In brief, HEK293 (HEK) cells were grown in Dulbecco’s Modified Eagle medium (DMEM) supplemented with 10% fetal calf serum, 2 mM glutamine, 100 IU/mL penicillin and […] streptomycin. They were seeded at 5 × 10^6 cells in T75 cm^2 culture flasks. One day later, they were transfected with […] of the pcDNA3.1 (Invitrogen, Groningen, The Netherlands) containing the human MCH-R1 using lipofectamine (Life Technologies, Cergy Pontoise, France), as previously described. One day later, cells were trypsinized, resuspended in a complete DMEM medium containing […] of geneticin and seeded at different dilutions in 96-well plates which were kept for 2 to 3 weeks in a humidified CO2 incubator. At the end of the selection period, isolated clones were picked up, amplified, and further characterized by cyclic AMP experiments. For each cell line, one positive clone was subcloned before being used for all of the cyclic AMP, [^35S]-GTPγS and receptor binding experiments necessary to characterize them. The stable HEK293 cell line expressing the human MCH-R1 was HEK-hMCH-R1.
Membrane preparations were classically made as previously described. In brief, the HEK-hMCH-R cell line was grown to confluency, harvested in PBS buffer containing 2 mM EDTA and centrifuged at 10,000× g for 5 min (4°C). The resulting pellet was suspended in 20 mM Hepes buffer (pH 7.5), containing 5 mM EGTA and homogenized using a Kinematica polytron. The homogenate was then centrifuged (95,000× g, 30 min, 4 °C) and the resulting pellet was suspended in 50 mM HEPES buffer (pH 7.5), containing 10 mM MgCl2 and 2 mM EGTA. Aliquots of membrane preparations were stored at −80 °C until use. Binding has been described in numerous publications and the test was based on Mac Donald et al.’s description. […] Nonspecific binding is determined in the presence of 0.1 μM MCH. […] The filters are dried and then counted for radioactivity in a scintillation counter (Topcount, Packard) using a scintillation cocktail (Microscint 0, Packard). The results are expressed as percentage inhibition of the control radioligand specific binding. The standard reference compound is MCH, which was tested in each experiment at 8 concentrations to obtain a competition curve from which its IC50 is calculated. The high level of assay robustness and reproducibility of each control monitored over several decades (internal data base, Eurofins) and included in every assay ensure results’ reliability even when performed only twice. […]

[1] = system: high-fat diet-induced obese C57BL/6 mice; test: Diet-induced obesity model: adipose tissue weights; format: in vivo, mouse
Method: Male C57BL/6 mice at 4 weeks of age were provided by BioLasco Taiwan (under Charles River Laboratories Licensee). All animals were maintained in an environment with well-controlled temperature (20–24 °C) and humidity (30–70%) with 12 h light/dark cycles. Free access to standard lab diet (MFG (Oriental Yeast Co., Ltd., Japan)) and autoclaved tap water was granted. All aspects of this work including housing, experimentation, and animal disposal were performed in general accordance with the “Guide for the Care and Use of Laboratory Animals: Eighth Edition” (National Academies Press, Washington, D.C., 2011) in our laboratory animal facility accredited by the […]. In addition, the protocol for animal care and use was reviewed and approved by the Institutional Animal Care and Use Committee (IACUC) at Pharmacology Discovery Services Taiwan, Ltd.
The protocol was performed for all groups and all animals. Male C57BL/6 mice were fed a high-fat diet (HFD) (60% of calories) or a standard chow diet (STD) from 4 weeks of age. Thirty (30) mice were fed the HFD and 10 mice were fed the STD (for 8 weeks before treatment) for a total of 20 weeks. The mice assigned to the STD diet were maintained on this diet throughout the study as a reference group of lean control mice. From Week 9, HFD-fed mice were grouped by body weight before dosing. Body weight was recorded three times weekly from Week 9. Food/water intake was recorded twice weekly from Week 9. Blood chemistry analyzes were performed in Weeks 8 (before dosing, Day 56), 16 (Day 113) and 20 (Day 141), including serum insulin, total cholesterol (T-CHO), triglyceride (TG), alanine aminotransferase (ALT), aspartate aminotransferase (AST), uric acid (UA), creatinine, potassium (K^+) and sodium (Na^+). At the termination in Week 20 (Day 141), the adipose tissue weight, including epididymal, mesenteric, inguinal, retroperitoneal, and brown fat, was measured after the animals were sacrificed. Two-way ANOVA followed by Bonferroni’s tests were applied to ascertain the difference between vehicle control and treated animals. Significance was set at p < 0.05 level. The following parameters were measured: (1) body weight three times weekly; (2) food/water intake twice weekly; (3) blood chemistry in Weeks 8 (before dosing), 16 and 20 including glucose, insulin, serum lipids (triglycerides (TG), total cholesterol (TC), AST, alanine aminotransferase (ALT), uric acid, creatinine, potassium and sodium through 16-h fasting animals; and finally, (4) total body fat (including visceral and subcutaneous fat) in Week 20.

fa/fa rats = test: Genetic model of obesity (fa/fa rats); format: in vivo, rat; conditions: data not shown
[2] = 5 and 10 mg/kg i.p. once daily for 12 weeks, Week 20 (Day 141)

T1 sequence (Q99705 whole entry): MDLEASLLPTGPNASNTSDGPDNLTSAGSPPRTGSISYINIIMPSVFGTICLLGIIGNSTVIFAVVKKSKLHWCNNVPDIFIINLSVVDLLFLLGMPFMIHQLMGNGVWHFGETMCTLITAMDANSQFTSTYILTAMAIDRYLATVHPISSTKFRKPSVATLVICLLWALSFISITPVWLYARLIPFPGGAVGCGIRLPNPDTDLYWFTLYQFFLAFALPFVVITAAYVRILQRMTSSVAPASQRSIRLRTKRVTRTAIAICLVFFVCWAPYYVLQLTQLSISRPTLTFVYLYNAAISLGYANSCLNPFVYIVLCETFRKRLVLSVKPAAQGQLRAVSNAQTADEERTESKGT

SMILES: CCCC[C@@H]1NC(=O)[C@@H](NC(=O)c2ccc(NC(=N)N)cc2)CCn2cc(nn2)C[C@@H](C(=O)N[C@@H](Cc2c[nH]c3ccccc23)C(=O)O)NC(=O)[C@@H]2CCCN2C(=O)[C@H](CCCNC(=N)N)NC(=O)C[C@H](C(C)C)NC(=O)[C@H](CCCNC(=N)N)NC(=O)[C@H](CC(C)C)NC1=O [GPS18169] ({Benzoyl(4-guanidino)}-[Aha][Nle]LR[β3hV]RP[Pra]W-OH; triazole 1-8)
- affinity at the MCH-R1 receptor (in words) (human MCH-R1): low nanomolar range
- adipose tissue weight / accumulation ([1]; 5 and 10 mg/kg i.p. once daily for 12 weeks): active in limiting the accumulation of adipose tissues; also recorded: significant decrease
- weight of brown fat [1, 2]: significant (p < 0.05) decrease
- weight of inguinal fat [1, 2]: significant (p < 0.05) decrease
- weight of mesenteric fat [1, 2]: significant (p < 0.05) decrease
- weight of retroperitoneal fat [1, 2]: significant (p < 0.05) decrease
- weight ratio of adipose tissue to the whole body ([1]; g/100 g of body weight): constant
- changes between treated and untreated animals (fa/fa rats): no changes were recorded
